Measured values from USRE40086E1, “Method for treating bacterial infection with novel 7-substituted-9-substituted amino 6-demethyl-6-deoxytetracyclines” (Wyeth Holdings Corporation, priority 1991, dated 2008).

Key:
Format in all cases: cell-based
E. coli J2175 = experiment: MIC, agar dilution (Table IA); details: unit assumed
S. aureus NEMC 8769/89-4 = experiment: MIC, agar dilution (Table IA); details: unit assumed
E. coli J3272 TetC = experiment: MIC, agar dilution (Table IA); details: unit assumed
E. faecalis 12201 = experiment: MIC, agar dilution; details: Enterococcus 12201; Table IA; unit assumed
[1] = tested on: X. maltophilia NEMC 87210; experiment: MIC, agar dilution (Table IA); details: unit assumed
S. mariescens FDOR 8733 = experiment: MIC, agar dilution (Table IA); details: unit assumed
[2] = tested on: S. aureus IVES 1983 (meth. resistant); experiment: MIC, agar dilution; details: S. aureus IVES 1983; Table IA; unit assumed
E. coli MC4100 TetB = experiment: MIC, agar dilution (Table IA); details: unit assumed
S. aureus ROSE (MP) = experiment: MIC, agar dilution (Table IA); details: unit assumed
[3] = tested on: S. aureus UBMS 88-4 (Sensitive); experiment: MIC, agar dilution; details: S. aureus UBMS 88-4; Table IA; unit assumed
E. coli BAJ9003 = experiment: MIC, agar dilution (Table IA); details: unit assumed
[4] = tested on: S. aureus UBMS 90-1 (tetM); experiment: MIC, agar dilution; details: S. aureus UBMS 90-1 TetM; Table IA; unit assumed
[5] = tested on: S. haemolyticus AVAH 88-3; experiment: MIC, agar dilution; details: S. hemolyticus AVHAH 88-3; Table IA; unit assumed
[6] = tested on: E. coli UBMS 89-2 (Sensitive); experiment: MIC, agar dilution; details: E. coli UBMS 89-2 Tet Sens.; Table IA; unit assumed
E. coli J3272 Tet sens. = experiment: MIC, agar dilution (Table IA); details: unit assumed
E. coli UBMS 89-1 (tetM) = experiment: MIC, agar dilution; details: E. coli UBMS 89-1 TetM; Table IA; unit assumed
E. coli PRP1 TetA = experiment: MIC, agar dilution (Table IA); details: unit assumed
E. coli UBMS 90-4 (tetM) = experiment: MIC, agar dilution; details: E. coli UBMS 90-4 TetM; Table IA; unit assumed
[7] = tested on: S. aureus ATCC 29213 (Sensitive); experiment: MIC, agar dilution; details: S. aureus ATCC 29213; Table IA; unit assumed
[8] = tested on: S. aureus UBMS 88-5 (tetM); experiment: MIC, agar dilution; details: S. aureus UBMS 88-5 TetM; Table IA; unit assumed
E. coli UBMS 90-5 = experiment: MIC, agar dilution (Table IA); details: unit assumed
[9] = tested on: S. aureus UBMS 90-2 (tetM); experiment: MIC, agar dilution; details: S. aureus UBMS 90-2 TetM; Table IA; unit assumed
[10] = tested on: Ps. acruginosa ATCC 27853; experiment: MIC, agar dilution (Table IA); details: unit assumed
[11] = tested on: S. aureus UBMS 88-7 (tetK); experiment: MIC, agar dilution; details: S. aureus UBMS 88-7 TetK; Table IA; unit assumed
E. coli #311 (MP) = experiment: MIC, agar dilution (Table IA); details: unit assumed
E. faecalis ATCC 29212 = experiment: MIC, agar dilution; details: E. faecalis ATCC 29212; Table IA; unit assumed
[12] = tested on: S. aureus Smith (Sensitive); experiment: MIC, agar dilution; details: S. aureus SMITH (MP); Table IA; unit assumed
[13] = tested on: S. aureus IVES 2943 (meth. resistant); experiment: MIC, agar dilution; details: S. aureus IVES 2943; Table IA; unit assumed
E. coli UBMS 88-1 (tetB) = experiment: MIC, agar dilution; details: E. coli UBMS 88-1 TetB; Table IA; unit assumed
E. coli ATCC 25922 = experiment: MIC, agar dilution; details: E. coli ATCC 25922; Table IA; unit assumed
[14] = tested on: S. aureus UBMS 90-3 (Sensitive); experiment: MIC, agar dilution; details: S. aureus UBMS 90-3; Table IA; unit assumed
E. coli J3272 TetD = experiment: MIC, agar dilution (Table IA); details: unit assumed

Row | SMILES | Antibacterial activity (MIC) (E. coli J2175) [µg/mL] | Antibacterial activity (MIC) (S. aureus NEMC 8769/89-4) [µg/mL] | Antibacterial activity (MIC) (E. coli J3272 TetC) [µg/mL] | Antibacterial activity (MIC) (E. faecalis 12201) [µg/mL] | Antibacterial activity (MIC) [1] [µg/mL] | Antibacterial activity (MIC) (S. mariescens FDOR 8733) [µg/mL] | Antibacterial activity (MIC) [2] [µg/mL] | Antibacterial activity (MIC) (E. coli MC4100 TetB) [µg/mL] | Antibacterial activity (MIC) (S. aureus ROSE (MP)) [µg/mL] | Antibacterial activity (MIC) [3] [µg/mL] | Antibacterial activity (MIC) (E. coli BAJ9003) [µg/mL] | Antibacterial activity (MIC) [4] [µg/mL] | Antibacterial activity (MIC) [5] [µg/mL] | Antibacterial activity (MIC) [6] [µg/mL] | Antibacterial activity (MIC) (E. coli J3272 Tet sens.) [µg/mL] | Antibacterial activity (MIC) (E. coli UBMS 89-1 (tetM)) [µg/mL] | Antibacterial activity (MIC) (E. coli PRP1 TetA) [µg/mL] | Antibacterial activity (MIC) (E. coli UBMS 90-4 (tetM)) [µg/mL] | Antibacterial activity (MIC) [7] [µg/mL] | Antibacterial activity (MIC) [8] [µg/mL] | further results
1 | CN(C)c1cc(NC(=O)CN2CCCCC2)c(O)c2c1CC1CC3C(N(C)C)C(O)=C(C(N)=O)C(=O)C3(O)C(O)=C1C2=O.Cl.Cl (stereo not drawn) [UU, [7S-(7alpha,10aalpha)]-N-[9-(Aminocarbonyl)-4,7-bis(dimethylamino)-5,5a,6,6a,7,10,10a,12-octahydro-1,8,10a,11-tetrahydroxy-10,12-dioxo-2-naphthacenyl)-1-piperidineacetamide dihydrochloride] | 0.5 | 0.06 | 0.5 | 0.12 | 0.12 | 4 | 0.5 | 0.5 | 0.5 | 0.25 | 0.06 | 0.25 | 0.12 | 0.5 | 0.5 | 0.12 | 1 | 0.5 | 0.12 | 0.25 | Antibacterial activity (MIC) (E. coli UBMS 90-5): 0.5 µg/mL; Antibacterial activity (MIC) [9]: 0.12 µg/mL; Antibacterial activity (MIC) [10]: 32 µg/mL; Antibacterial activity (MIC) [11]: 0.25 µg/mL; Antibacterial activity (MIC) (E. coli #311 (MP)): 0.25 µg/mL; Antibacterial activity (MIC) (E. faecalis ATCC 29212): 0.06 µg/mL; Antibacterial activity (MIC) [12]: 0.12 µg/mL; Antibacterial activity (MIC) [13]: 0.25 µg/mL; Antibacterial activity (MIC) (E. coli UBMS 88-1 (tetB)): 0.5 µg/mL; Antibacterial activity (MIC) (E. coli ATCC 25922): 0.25 µg/mL; Antibacterial activity (MIC) [14]: 0.12 µg/mL; Antibacterial activity (MIC) (E. coli J3272 TetD): 0.25 µg/mL
2 | CN(C)c1cc(NC(=O)CN2CCC2)c(O)c2c1CC1CC3C(N(C)C)C(O)=C(C(N)=O)C(=O)C3(O)C(O)=C1C2=O (stereo not drawn) [LLL, (7S-(7alpha,10aalpha)]-N-[9-(Aminocarbonyl)-4,7-bis(dimethylamino)-5,5a,6,6a,7,10,10a,12-octahydro-1,8,10a,11-tetrahydroxy-10,12-dioxo-2-naphthacenyl]-1-azetidineacetamide] | 0.25 | 0.12 | 0.5 | 0.25 | 1 | 2 | 2 | 0.5 | 2 | 0.25 | 0.06 | 0.25 | 0.25 | 0.5 | 0.25 | 0.25 | 1 | 0.25 | 0.25 | 0.25 | Antibacterial activity (MIC) (E. coli UBMS 90-5): 0.25 µg/mL; Antibacterial activity (MIC) [9]: 0.25 µg/mL; Antibacterial activity (MIC) [10]: 8 µg/mL; Antibacterial activity (MIC) [11]: 2 µg/mL; Antibacterial activity (MIC) (E. coli #311 (MP)): 0.25 µg/mL; Antibacterial activity (MIC) (E. faecalis ATCC 29212): 0.25 µg/mL; Antibacterial activity (MIC) [12]: 0.25 µg/mL; Antibacterial activity (MIC) [13]: 2 µg/mL; Antibacterial activity (MIC) (E. coli UBMS 88-1 (tetB)): 0.5 µg/mL; Antibacterial activity (MIC) (E. coli ATCC 25922): 0.25 µg/mL; Antibacterial activity (MIC) [14]: 0.12 µg/mL; Antibacterial activity (MIC) (E. coli J3272 TetD): 0.12 µg/mL
3 | Br.CC(Br)C(=O)Nc1cc(N(C)C)c2c(c1O)C(=O)C1=C(O)C3(O)C(=O)C(C(N)=O)=C(O)C(N(C)C)C3CC1C2 (stereo not drawn) [JJJ] | > 32 | 4 | > 32 | 16 | 16 | > 32 | 32 | > 32 | > 32 | 8 | 4 | 16 | 16 | > 32 | > 32 | 32 | > 32 | > 32 | 4 | 8 | Antibacterial activity (MIC) (E. coli UBMS 90-5): > 32 µg/mL; Antibacterial activity (MIC) [9]: 8 µg/mL; Antibacterial activity (MIC) [10]: > 32 µg/mL; Antibacterial activity (MIC) [11]: 16 µg/mL; Antibacterial activity (MIC) (E. coli #311 (MP)): > 32 µg/mL; Antibacterial activity (MIC) (E. faecalis ATCC 29212): 16 µg/mL; Antibacterial activity (MIC) [12]: 4 µg/mL; Antibacterial activity (MIC) [13]: 32 µg/mL; Antibacterial activity (MIC) (E. coli UBMS 88-1 (tetB)): > 32 µg/mL; Antibacterial activity (MIC) (E. coli ATCC 25922): > 32 µg/mL; Antibacterial activity (MIC) [14]: 2 µg/mL; Antibacterial activity (MIC) (E. coli J3272 TetD): > 32 µg/mL
